According to US9340590B2 (priority 2011, dated 2016):
Like-named read-outs stand apart in the source and are kept apart here. Positions of bridges follow the written chain, without caps; N, C: chain ends. Non-standard residues stand in square brackets, D forms with d. Residues, ends and D or L forms follow the SMILES beside them. 1Nal = N[C@@H](Cc1cccc2ccccc12)C(=O)O; 2Nal = N[C@@H](Cc1ccc2ccccc2c1)C(=O)O

Legend:
Assay in all cases: cell-based
hNav1.7 = hNav1.7 (Homo sapiens, UniProt Q15858); format: cell-based; conditions: IonWorks Quattro, read-out: IWQ Use Nav1.7
Chain of hNav1.7 (Q15858 whole entry, looked up): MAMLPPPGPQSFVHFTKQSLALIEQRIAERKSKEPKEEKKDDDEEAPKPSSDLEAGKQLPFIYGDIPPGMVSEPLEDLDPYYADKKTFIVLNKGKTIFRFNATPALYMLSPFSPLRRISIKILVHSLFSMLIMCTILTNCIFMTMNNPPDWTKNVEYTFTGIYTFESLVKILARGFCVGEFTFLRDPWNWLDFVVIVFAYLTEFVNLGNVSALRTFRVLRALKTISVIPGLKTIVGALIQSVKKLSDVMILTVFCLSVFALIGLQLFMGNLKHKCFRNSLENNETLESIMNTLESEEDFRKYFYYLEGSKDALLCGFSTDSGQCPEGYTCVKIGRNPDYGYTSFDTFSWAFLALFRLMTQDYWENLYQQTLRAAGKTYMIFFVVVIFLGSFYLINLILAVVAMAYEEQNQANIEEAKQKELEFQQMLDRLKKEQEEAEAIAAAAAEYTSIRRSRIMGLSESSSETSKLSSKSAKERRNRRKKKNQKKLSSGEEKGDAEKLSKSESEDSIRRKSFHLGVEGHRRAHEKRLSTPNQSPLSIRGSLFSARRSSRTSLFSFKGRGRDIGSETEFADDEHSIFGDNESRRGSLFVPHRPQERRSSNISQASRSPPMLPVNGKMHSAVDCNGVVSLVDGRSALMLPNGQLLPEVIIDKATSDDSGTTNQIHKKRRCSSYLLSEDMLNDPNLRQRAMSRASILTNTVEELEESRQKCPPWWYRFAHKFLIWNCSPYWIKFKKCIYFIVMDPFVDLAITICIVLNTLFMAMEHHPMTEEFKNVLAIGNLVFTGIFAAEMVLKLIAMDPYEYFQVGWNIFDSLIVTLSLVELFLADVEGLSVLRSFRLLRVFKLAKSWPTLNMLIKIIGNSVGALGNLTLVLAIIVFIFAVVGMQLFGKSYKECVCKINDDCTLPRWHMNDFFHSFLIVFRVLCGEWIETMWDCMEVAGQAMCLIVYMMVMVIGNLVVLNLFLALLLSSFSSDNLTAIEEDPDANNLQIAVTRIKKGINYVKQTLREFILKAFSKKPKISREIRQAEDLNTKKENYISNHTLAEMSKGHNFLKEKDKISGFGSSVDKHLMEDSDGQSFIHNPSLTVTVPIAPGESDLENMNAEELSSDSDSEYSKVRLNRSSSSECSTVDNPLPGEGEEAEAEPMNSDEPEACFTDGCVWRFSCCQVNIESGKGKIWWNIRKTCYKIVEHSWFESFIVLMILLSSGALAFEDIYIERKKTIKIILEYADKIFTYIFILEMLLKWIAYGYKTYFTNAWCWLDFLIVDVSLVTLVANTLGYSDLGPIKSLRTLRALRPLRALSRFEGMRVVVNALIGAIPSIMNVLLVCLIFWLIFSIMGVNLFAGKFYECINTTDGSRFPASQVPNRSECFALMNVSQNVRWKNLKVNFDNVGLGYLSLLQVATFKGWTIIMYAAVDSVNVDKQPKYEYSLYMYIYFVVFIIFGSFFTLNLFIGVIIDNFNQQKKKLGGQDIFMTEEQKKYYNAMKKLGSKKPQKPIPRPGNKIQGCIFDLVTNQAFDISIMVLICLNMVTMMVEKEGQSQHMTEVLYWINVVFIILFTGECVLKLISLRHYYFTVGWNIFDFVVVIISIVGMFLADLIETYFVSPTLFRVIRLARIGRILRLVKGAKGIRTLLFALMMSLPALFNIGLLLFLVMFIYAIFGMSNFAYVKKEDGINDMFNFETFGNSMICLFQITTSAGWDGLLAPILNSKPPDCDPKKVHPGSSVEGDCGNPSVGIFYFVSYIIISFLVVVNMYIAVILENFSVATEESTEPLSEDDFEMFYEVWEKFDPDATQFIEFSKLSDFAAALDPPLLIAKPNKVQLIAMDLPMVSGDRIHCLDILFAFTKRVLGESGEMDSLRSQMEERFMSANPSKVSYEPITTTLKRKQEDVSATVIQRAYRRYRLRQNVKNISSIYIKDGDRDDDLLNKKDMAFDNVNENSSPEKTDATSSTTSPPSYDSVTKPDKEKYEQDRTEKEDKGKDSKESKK

hNav1.5 = hNav1.5 (Homo sapiens, UniProt Q14524); conditions: IonWorks Quattro, read-out: IWQ Use Nav1.5
Chain of hNav1.5 (Q14524 whole entry, looked up): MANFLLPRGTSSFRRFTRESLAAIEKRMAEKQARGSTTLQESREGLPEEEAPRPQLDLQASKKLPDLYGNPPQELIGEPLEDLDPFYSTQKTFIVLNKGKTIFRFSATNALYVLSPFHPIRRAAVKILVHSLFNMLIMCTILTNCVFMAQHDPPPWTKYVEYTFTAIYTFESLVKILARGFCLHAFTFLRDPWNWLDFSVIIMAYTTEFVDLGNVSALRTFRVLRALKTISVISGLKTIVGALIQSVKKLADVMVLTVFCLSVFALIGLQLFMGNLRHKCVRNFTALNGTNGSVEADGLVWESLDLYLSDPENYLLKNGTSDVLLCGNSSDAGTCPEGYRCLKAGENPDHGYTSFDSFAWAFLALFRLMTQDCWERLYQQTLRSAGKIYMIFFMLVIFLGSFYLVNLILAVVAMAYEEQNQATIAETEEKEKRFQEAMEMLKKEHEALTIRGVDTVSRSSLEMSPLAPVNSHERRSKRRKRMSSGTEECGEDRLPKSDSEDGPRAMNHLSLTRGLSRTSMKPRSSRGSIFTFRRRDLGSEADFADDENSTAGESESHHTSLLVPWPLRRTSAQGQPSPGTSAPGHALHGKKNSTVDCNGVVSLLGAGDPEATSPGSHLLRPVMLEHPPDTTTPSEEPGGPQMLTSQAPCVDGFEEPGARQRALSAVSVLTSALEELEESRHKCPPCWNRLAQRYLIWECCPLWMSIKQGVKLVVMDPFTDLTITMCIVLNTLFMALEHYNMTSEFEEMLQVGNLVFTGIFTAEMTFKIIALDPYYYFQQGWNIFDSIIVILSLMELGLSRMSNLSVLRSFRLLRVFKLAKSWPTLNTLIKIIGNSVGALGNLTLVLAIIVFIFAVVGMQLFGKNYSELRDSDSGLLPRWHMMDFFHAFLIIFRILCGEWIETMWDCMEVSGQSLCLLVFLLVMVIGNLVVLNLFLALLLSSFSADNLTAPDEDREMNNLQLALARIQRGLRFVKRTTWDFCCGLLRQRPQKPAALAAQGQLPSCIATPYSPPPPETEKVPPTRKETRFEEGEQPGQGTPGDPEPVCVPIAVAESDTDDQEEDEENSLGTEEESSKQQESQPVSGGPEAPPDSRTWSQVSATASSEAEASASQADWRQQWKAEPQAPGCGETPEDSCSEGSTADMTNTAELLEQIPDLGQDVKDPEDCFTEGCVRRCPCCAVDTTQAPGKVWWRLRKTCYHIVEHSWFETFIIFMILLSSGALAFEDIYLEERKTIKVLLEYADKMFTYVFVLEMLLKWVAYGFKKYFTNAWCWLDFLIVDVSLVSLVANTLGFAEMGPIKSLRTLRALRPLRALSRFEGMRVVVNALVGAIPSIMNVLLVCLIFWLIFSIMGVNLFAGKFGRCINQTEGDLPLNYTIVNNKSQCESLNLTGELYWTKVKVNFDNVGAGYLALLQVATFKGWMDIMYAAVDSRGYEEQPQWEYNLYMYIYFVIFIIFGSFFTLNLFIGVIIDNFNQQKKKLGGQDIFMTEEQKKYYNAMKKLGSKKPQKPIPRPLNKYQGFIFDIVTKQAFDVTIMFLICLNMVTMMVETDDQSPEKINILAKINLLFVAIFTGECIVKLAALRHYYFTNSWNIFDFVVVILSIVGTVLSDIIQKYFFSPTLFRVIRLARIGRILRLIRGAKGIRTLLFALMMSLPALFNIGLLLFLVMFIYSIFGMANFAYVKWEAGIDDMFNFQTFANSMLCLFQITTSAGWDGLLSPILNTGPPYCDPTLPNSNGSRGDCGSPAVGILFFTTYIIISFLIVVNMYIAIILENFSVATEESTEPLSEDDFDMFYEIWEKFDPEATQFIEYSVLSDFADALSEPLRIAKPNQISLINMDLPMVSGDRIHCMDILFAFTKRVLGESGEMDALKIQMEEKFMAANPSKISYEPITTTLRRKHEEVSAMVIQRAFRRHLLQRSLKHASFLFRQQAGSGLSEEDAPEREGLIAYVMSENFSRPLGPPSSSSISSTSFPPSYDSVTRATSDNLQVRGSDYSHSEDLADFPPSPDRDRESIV

hNav1.3 = hNav1.3 (Homo sapiens, UniProt Q9NY46); conditions: IonWorks Quattro, read-out: IWQ Use Nav1.3

Structure (SMILES)	IC50 (hNav1.7; use-dependent block, hNav1.7)	IC50 (hNav1.5; use-dependent block, hNav1.5)	IC50 (hNav1.3; use-dependent block, hNav1.3)	IC50 (hNav1.7; Use)	IC50 (hNav1.5; Use)	IC50 (hNav1.3; Use)
CC[C@H](C)[C@@H]1NC(=O)[C@@H]2CSSC[C@@H]3NC(=O)[C@H](C(C)C)NC(=O)[C@H](CC(C)C)NC(=O)[C@H](CC(N)=O)NC(=O)[C@@H]4CCCN4C(=O)[C@H](CCCNC(=N)N)NC(=O)[C@H](CSSC[C@H](NC(=O)[C@@H](N)CC(=O)O)C(=O)N[C@@H](CC(C)C)C(=O)NCC(=O)N[C@@H](Cc4ccccc4)C(=O)N[C@@H](CCSC)C(=O)N[C@@H](CCCNC(=N)N)C(=O)N[C@@H](CCCCN)C(=O)N2)NC(=O)[C@H](CSSC[C@@H](C(=O)N[C@@H](CCCCN)C(=O)N[C@@H](Cc2ccc(O)cc2)C(=O)N[C@H](C(=O)N[C@@H](Cc2ccc4ccccc4c2)C(=O)N[C@@H](Cc2c[nH]c4ccccc24)C(N)=O)C(C)C)NC(=O)[C@H](Cc2c[nH]c4ccccc24)NC(=O)[C@H](CCCCN)NC(=O)[C@H](Cc2c[nH]cn2)NC(=O)[C@H]([C@@H](C)O)NC(=O)[C@H](CCCNC(=N)N)NC(=O)[C@H](CO)NC3=O)NC(=O)[C@H](CCCCN)NC(=O)[C@H](CC(=O)O)NC(=O)[C@H](CC(N)=O)NC(=O)[C@H](CC(=O)O)NC(=O)[C@@H]2CCCN2C1=O [compound 139] (H-DCLGFMRKCIPDNDKCCRPNLVCSRTHKWCKYV[2Nal]W-NH2; disulfide 2-17, 9-23, 16-30)	0.11 µM	2.12 µM	0.05 µM			
CC[C@H](C)[C@@H]1NC(=O)[C@@H](NC(=O)[C@H](CCCCN)NC(=O)[C@H](CCCNC(=N)N)NC(=O)[C@H](CCSC)NC(=O)[C@H](Cc2ccccc2)NC(=O)CNC(=O)[C@H](CC(C)C)NC(=O)[C@H](C)NC(=O)[C@@H](N)CC(=O)O)CSSC[C@@H]2NC(=O)[C@H](C(C)C)NC(=O)[C@H](CC(C)C)NC(=O)[C@H](CC(N)=O)NC(=O)[C@@H]3CCCN3C(=O)[C@H](CCCNC(=N)N)NC(=O)[C@H](C)NC(=O)[C@H](CSSC[C@@H](C(=O)N[C@@H](CCCCN)C(=O)N[C@@H](Cc3ccc(O)cc3)C(=O)N[C@H](C(=O)N[C@@H](Cc3ccccc3)C(N)=O)C(C)C)NC(=O)[C@H](Cc3c[nH]c4ccccc34)NC(=O)[C@H](CCCCN)NC(=O)[C@H](Cc3c[nH]cn3)NC(=O)[C@H]([C@@H](C)O)NC(=O)[C@H](CCCNC(=N)N)NC(=O)[C@H](CO)NC2=O)NC(=O)[C@H](CCCCN)NC(=O)[C@H](CC(=O)O)NC(=O)[C@H](CC(N)=O)NC(=O)[C@H](CC(=O)O)NC(=O)[C@@H]2CCCN2C1=O [compound 140] (H-DALGFMRKCIPDNDKCARPNLVCSRTHKWCKYVF-NH2; disulfide 9-23, 16-30)	2.45 µM	18.9 µM	0.79 µM			
CC[C@H](C)[C@@H]1NC(=O)[C@@H]2CSSC[C@@H]3NC(=O)[C@H](C(C)C)NC(=O)[C@H](CC(C)C)NC(=O)[C@H](CCC(=O)O)NC(=O)[C@@H]4CCCN4C(=O)[C@H](CCCNC(=N)N)NC(=O)[C@H](CSSC[C@H](NC(=O)[C@@H](N)CC(=O)O)C(=O)N[C@@H](CC(C)C)C(=O)NCC(=O)N[C@@H](Cc4ccccc4)C(=O)N[C@@H](CCSC)C(=O)N[C@@H](CCCNC(=N)N)C(=O)N[C@@H](CCCCN)C(=O)N2)NC(=O)[C@H](CSSC[C@@H](C(=O)N[C@@H](CCCCN)C(=O)N[C@@H](Cc2ccc(O)cc2)C(=O)N[C@H](C(=O)N[C@@H](Cc2ccccc2)C(N)=O)C(C)C)NC(=O)[C@H](Cc2c[nH]c4ccccc24)NC(=O)[C@H](CCCCN)NC(=O)[C@H](Cc2cnc[nH]2)NC(=O)[C@H]([C@@H](C)O)NC(=O)[C@H](CCCNC(=N)N)NC(=O)[C@H](CO)NC3=O)NC(=O)[C@H](CCCCN)NC(=O)[C@H](CC(=O)O)NC(=O)[C@H](CC(N)=O)NC(=O)[C@H](CC(=O)O)NC(=O)[C@@H]2CCCN2C1=O [compound 149] (H-DCLGFMRKCIPDNDKCCRPELVCSRTHKWCKYVF-NH2; disulfide 2-17, 9-23, 16-30)				1.42 µM	7.49 µM	1.02 µM
CC[C@H](C)[C@@H]1NC(=O)[C@@H]2CSSC[C@@H]3NC(=O)[C@H](C(C)C)NC(=O)[C@H](CC(C)C)NC(=O)[C@H](CC(N)=O)NC(=O)[C@@H]4CCCN4C(=O)[C@H](CCCNC(=N)N)NC(=O)[C@H](CSSC[C@H](NC(=O)[C@@H](N)CC(=O)O)C(=O)N[C@@H](CC(C)C)C(=O)NCC(=O)N[C@@H](Cc4ccccc4)C(=O)N[C@@H](CCSC)C(=O)N[C@@H](CCCNC(=N)N)C(=O)N[C@@H](CCCCN)C(=O)N2)NC(=O)[C@H](CSSC[C@@H](C(=O)N[C@@H](CCCCN)C(=O)N[C@@H](Cc2ccc(O)cc2)C(=O)N[C@H](C(=O)N[C@@H](Cc2ccccc2)C(N)=O)C(C)C)NC(=O)[C@H](Cc2c[nH]c4ccccc24)NC(=O)[C@H](CCCCN)NC(=O)[C@H](Cc2cnc[nH]2)NC(=O)[C@H]([C@@H](C)O)NC(=O)[C@H](CCCNC(=N)N)NC(=O)[C@H](CCC(=O)O)NC3=O)NC(=O)[C@H](CCCCN)NC(=O)[C@H](CC(=O)O)NC(=O)[C@H](CC(N)=O)NC(=O)[C@H](CC(=O)O)NC(=O)[C@@H]2CCCN2C1=O [compound 150] (H-DCLGFMRKCIPDNDKCCRPNLVCERTHKWCKYVF-NH2; disulfide 2-17, 9-23, 16-30)				6.12 µM	11.5 µM	6.78 µM
CC[C@H](C)[C@@H]1NC(=O)[C@@H]2CSSC[C@@H]3NC(=O)[C@H](C(C)C)NC(=O)[C@H](CC(C)C)NC(=O)[C@H](CC(N)=O)NC(=O)[C@@H]4CCCN4C(=O)[C@H](CCCNC(=N)N)NC(=O)[C@H](CSSC[C@H](NC(=O)[C@@H](N)CC(=O)O)C(=O)N[C@@H](CC(C)C)C(=O)NCC(=O)N[C@@H](Cc4ccccc4)C(=O)N[C@@H](CCSC)C(=O)N[C@@H](CCCNC(=N)N)C(=O)N[C@@H](CCCCN)C(=O)N2)NC(=O)[C@H](CSSC[C@@H](C(=O)N[C@@H](CCCCN)C(=O)N[C@@H](Cc2ccc(O)cc2)C(=O)N[C@H](C(=O)N[C@@H](Cc2ccccc2)C(N)=O)C(C)C)NC(=O)[C@H](Cc2c[nH]c4ccccc24)NC(=O)[C@H](CCCCN)NC(=O)[C@H](Cc2c[nH]cn2)NC(=O)[C@H]([C@@H](C)O)NC(=O)[C@H](CCC(=O)O)NC(=O)[C@H](CO)NC3=O)NC(=O)[C@H](CCCCN)NC(=O)[C@H](CC(=O)O)NC(=O)[C@H](CC(N)=O)NC(=O)[C@H](CC(=O)O)NC(=O)[C@@H]2CCCN2C1=O [compound 151] (H-DCLGFMRKCIPDNDKCCRPNLVCSETHKWCKYVF-NH2; disulfide 2-17, 9-23, 16-30)				0.71 µM	14 µM	1.17 µM
CC[C@H](C)[C@@H]1NC(=O)[C@@H]2CSSC[C@@H]3NC(=O)[C@H](C(C)C)NC(=O)[C@H](CC(C)C)NC(=O)[C@H](CC(N)=O)NC(=O)[C@@H]4CCCN4C(=O)[C@H](CCCNC(=N)N)NC(=O)[C@H](CSSC[C@H](NC(=O)[C@@H](N)CC(=O)O)C(=O)N[C@@H](CC(C)C)C(=O)NCC(=O)N[C@@H](Cc4ccccc4)C(=O)N[C@@H](CCSC)C(=O)N[C@@H](CCCNC(=N)N)C(=O)N[C@@H](CCCCN)C(=O)N2)NC(=O)[C@H](CSSC[C@@H](C(=O)N[C@@H](CCCCN)C(=O)N[C@@H](Cc2ccc(O)cc2)C(=O)N[C@H](C(=O)N[C@@H](Cc2ccccc2)C(N)=O)C(C)C)NC(=O)[C@H](Cc2c[nH]c4ccccc24)NC(=O)[C@H](CCCCN)NC(=O)[C@H](Cc2c[nH]cn2)NC(=O)[C@H]([C@@H](C)O)NC(=O)[C@H](CCCNC(=N)N)NC(=O)[C@H](CO)NC3=O)NC(=O)[C@H](CCCCN)NC(=O)[C@H](CC(=O)O)NC(=O)[C@H](CC(N)=O)NC(=O)[C@H](Cc2cccc3ccccc23)NC(=O)[C@@H]2CCCN2C1=O [compound 162] (H-DCLGFMRKCIP[1Nal]NDKCCRPNLVCSRTHKWCKYVF-NH2; disulfide 2-17, 9-23, 16-30)				0.06 µM	9.88 µM	0.04 µM
CC[C@H](C)[C@@H]1NC(=O)[C@@H]2CSSC[C@@H]3NC(=O)[C@H](C(C)C)NC(=O)[C@H](CC(C)C)NC(=O)[C@H](CC(N)=O)NC(=O)[C@@H]4CCCN4C(=O)[C@H](CCCNC(=N)N)NC(=O)[C@H](CSSC[C@H](NC(=O)[C@@H](N)CC(=O)O)C(=O)N[C@@H](CC(C)C)C(=O)NCC(=O)N[C@@H](Cc4ccccc4)C(=O)N[C@@H](CCSC)C(=O)N[C@@H](CCCNC(=N)N)C(=O)N[C@@H](CCCCN)C(=O)N2)NC(=O)[C@H](CSSC[C@@H](C(=O)N[C@@H](CCCCN)C(=O)N[C@@H](Cc2ccc(O)cc2)C(=O)N[C@H](C(=O)N[C@@H](Cc2ccccc2)C(N)=O)C(C)C)NC(=O)[C@H](Cc2c[nH]c4ccccc24)NC(=O)[C@H](CCCCN)NC(=O)[C@H](Cc2c[nH]cn2)NC(=O)[C@H]([C@@H](C)O)NC(=O)[C@H](CCCNC(=N)N)NC(=O)[C@H](CO)NC3=O)NC(=O)[C@H](CCCCN)NC(=O)[C@H](CC(=O)O)NC(=O)[C@H](Cc2cccc3ccccc23)NC(=O)[C@H](CC(=O)O)NC(=O)[C@@H]2CCCN2C1=O [compound 163] (H-DCLGFMRKCIPD[1Nal]DKCCRPNLVCSRTHKWCKYVF-NH2; disulfide 2-17, 9-23, 16-30)				0.11 µM	8.27 µM	0.09 µM
